Publication PMC6273079, “Purification of Flavonoids from Chinese Bayberry (Morella rubra Sieb. et Zucc.) Fruit Extracts and α-Glucosidase Inhibitory Activities of Different Fractionations” (Molecules, 2016)

Experiments:
[1] = ABTS radical scavenging activity; conditions: samples from BQ pulp; 6 min, 734 nm; mean ± SD, n = 3
Protocol: ABTS assay was carried out using a spectrophotometer as reported. The ABTS radical cation was generated by reacting 7 mmol/L ABTS with 2.45 mmol/L potassium persulfate, and the mixture was allowed to stand in the dark at room temperature for 16 h before use. Before analysis, the ABTS solution was diluted with ethanol to an absorbance of 0.70 ± 0.05 at a wavelength of 734 nm. The absorbance at 734 nm was recorded for 6 min after mixing of 0.1 mL of the tested samples dissolved in ethanol with 3.9 mL of ABTS solution. The radical scavenging activity was calculated as the Equation (1) above.

[2] = DPPH radical scavenging activity; conditions: samples from BQ pulp; 1 h reaction, 515 nm; mean ± SD, n = 3
Protocol: DPPH radical scavenging activity was measured according to Brand-Williams, Cuvelier, and Berset with modifications. The reaction for scavenging DPPH radical was carried out by adding 2 μL sample to 198 μL 25 μg/mL DPPH solution at room temperature. Absorbance at 515 nm before (A0) and after (A1) the reaction (1 h) was recorded using a micro-plate reader (BioTech, Synergy H1, Winooski, VT, USA). The radical scavenging activity was calculated as: Scavenging rate (%) = (A0 − A1)/A0 × 100 (1)

| Compound | IC50 of ABTS radical scavenging activity [1] | IC50 of DPPH scavenging activity [2] |
| --- | --- | --- |
| OC[C@H]1O[C@@H](Oc2cc3c(O)cc(O)cc3[o+]c2-c2ccc(O)c(O)c2)[C@H](O)[C@@H](O)[C@@H]1O [C3G, cyanidin-3-O-glucoside] | 4.19 ± 0.16 µg/mL | 3.22 µg/mL |
| C[C@@H]1O[C@@H](Oc2c(-c3cc(O)c(O)c(O)c3)oc3cc(O)cc(O)c3c2=O)[C@H](O)[C@H](O)[C@H]1O [M3R, myricetin-3-O-rhamnoside] | 3.24 ± 0.02 µg/mL | 2.81 µg/mL |
| O=c1c(O[C@@H]2O[C@H](CO)[C@H](O)[C@H](O)[C@H]2O)c(-c2ccc(O)c(O)c2)oc2cc(O)cc(O)c12 [Q3Gal, quercetin-3-O-galactoside] | 2.09 ± 0.01 µg/mL | 2.43 µg/mL |
| quercetin-3-O-rhamnoside [Q3R] | 2.28 ± 0.05 µg/mL | 2.55 µg/mL |
